Our source for the IC50 values is US8178552B2, “7-Azaindole derivatives and their use in the inhibition of c-Jun N-terminal kinase” (Eisai R&D Management Co., Ltd., priority 2008, dated 2012).

Sequence of JNK3 (P53779 whole entry, species assumed): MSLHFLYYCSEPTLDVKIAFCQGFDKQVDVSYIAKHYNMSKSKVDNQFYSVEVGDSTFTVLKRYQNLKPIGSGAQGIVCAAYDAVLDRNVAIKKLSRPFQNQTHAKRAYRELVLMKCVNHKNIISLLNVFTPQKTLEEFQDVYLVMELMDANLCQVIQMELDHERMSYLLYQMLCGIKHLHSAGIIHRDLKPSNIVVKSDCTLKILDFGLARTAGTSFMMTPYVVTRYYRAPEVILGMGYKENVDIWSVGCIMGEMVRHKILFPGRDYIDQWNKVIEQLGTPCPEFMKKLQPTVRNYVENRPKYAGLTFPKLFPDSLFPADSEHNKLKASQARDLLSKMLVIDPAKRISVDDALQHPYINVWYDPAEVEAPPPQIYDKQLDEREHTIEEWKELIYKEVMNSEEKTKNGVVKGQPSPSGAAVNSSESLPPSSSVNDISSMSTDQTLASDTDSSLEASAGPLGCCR

The experiment concerns the target JNK3 (Homo sapiens, UniProt P53779). Kind of experiment: JNK3 SPA assay. The conditions noted are these: 3.33 μM ATP, GST-c-Jun substrate; read-out: IC50 against JNK3. Format: biochemical. The method, then:
JNK1, JNK2, JNK3—SPA Assay
JNK1, JNK2, JNK3—SPA Assay • 1. Compound is dissolved in DMSO to a convenient concentration and this is diluted in 10% DMSO to a five times concentrate of the desired starting concentration (frequently 1:100). • 2. 10 μl of 500 mM EDTA is added to alternative wells of the Opti-plate row, which will receive kinase reaction plus DMSO. This creates the negative control. • 3. For the JNK2 and JNK3 assay, compounds are prepared in six 2-fold dilutions with water and each concentration is tested in duplicate. For the JNK1 assay compounds are prepared in four 5-fold dilutions with water which are tested in triplicate. Controls are treated identically. • 4. 20 μl per well of each compound concentration is transferred to an Opti-plate, in duplicate. • 5. 30 μl (JNK2/3 SPA) or 50 μl (JNK1 SPA) of substrate solution (25 mM HEPES pH 7.5, 10 mM magnesium acetate with 3.33 μM ATP (JNK2/3) or 2 μM ATP (JNK1), approximately 7.5 kBq [γ-^33P] ATP, GST-c-Jun, in water) is added to each well. • 6. 50 μl (JNK2/3 SPA) or 30 μl (JNK1 SPA) of kinase solution (JNK in 25 mM HEPES pH 7.5, 10 mM Mg Acetate) is added to each well.
• 7. The plate is incubated for 30 minutes at room temperature. • 8. 100 μl of bead/stop solution is added to each well (5 mg/ml glutathione-PVT-SPA beads, 40 mM ATP in PBS). • 9. Plates are sealed and incubated for 30 minutes at room temperature, centrifuged for 10 minutes at 2500 g and counted. • 10. The IC50 values are calculated as the concentration of the compound being tested at which the phosphorylation of c-Jun is decreased to 50% of the control value.
With `Cn1cc(-c2c[nH]c3ncc([C@H]4CC[C@H](N5CCC(F)(F)C5)CC4)cc23)cn1` [Compound I-47, 5-((1r,4r)-4-(3,3-difluoropyrrolidin-1-yl)cyclohexyl)-3-(1-methyl-1H-pyrazol-4-yl)-1H-pyrrolo[2,3-b]pyridine], the concentration for half-maximal inhibition (IC50) turned out to be 93 nM.
With `CCN(CCOC)[C@H]1CC[C@@H](c2cnc3[nH]cc(-c4cnn(C)c4)c3c2)CC1` [Compound I-124, (1s,4s)-N-ethyl-N-(2-methoxyethyl)-4-(3-(1-methyl-1H-pyrazol-4-yl)-1H-pyrrolo[2,3-b]pyridin-5-yl)cyclohexanamine], the IC50 worked out at 257 nM.
Under `CN[C@@H]1C[C@H]2C=C(c3cnc4[nH]cc(-c5cnn(C)c5)c4c3)C[C@H](C2)C1` (relative stereo) [Compound I-151, trans N-methyl-7-(3-(1-methyl-1H-pyrazol-4-yl)-1H-pyrrolo[2,3-b]pyridin-5-yl)bicyclo[3.3.1]non-6-en-3-amine] stands 347 nM; under `Cn1cc(-c2c[nH]c3ncc([C@H]4CC[C@H](N5CC[C@H](F)C5)CC4)cc23)cn1` [Compound I-50, 5-((1S,4r)-4-((S)-3-fluoropyrrolidin-1-yl)cyclohexyl)-3-(1-methyl-1H-pyrazol-4-yl)-1H-pyrrolo[2,3-b]pyridine], 214 nM; under `Cn1cc(-c2c[nH]c3ncc(C4=C[C@H]5O[C@@H]4CC5C(N)=O)cc23)cn1` (mixture of isomers) [Compound I-156, (1R,4R)-5-(3-(1-methyl-1H-pyrazol-4-yl)-1H-pyrrolo[2,3-b]pyridin-5-yl)-7-oxabicyclo[2.2.1]hept-5-ene-2-carboxamide], 1410 nM.
Under `CO[C@]1(c2cnc3[nH]cc(-c4cnn(C)c4)c3c2)CC[C@H](N2CCOCC2)CC1` [Compound I-163, 4-((1s,4s)-4-methoxy-4-(3-(1-methyl-1H-pyrazol-4-yl)-1H-pyrrolo[2,3-b]pyridin-5-yl)cyclohexyl)morpholine] stands 1480 nM; under `CCCN(CCOC)[C@H]1CC[C@H](c2cnc3[nH]cc(-c4cnn(C)c4)c3c2)CC1` [Compound I-121, (1r,4r)-N-(2-methoxyethyl)-4-(3-(1-methyl-1H-pyrazol-4-yl)-1H-pyrrolo[2,3-b]pyridin-5-yl)-N-propylcyclohexanamine], 363 nM.
Under `CN(C)C1CCC(c2cnc3[nH]cc(-c4cnn(C)c4)c3c2)CC1` (stereo not drawn) [Compound I-9, N,N-dimethyl-4-(3-(1-methyl-1H-pyrazol-4-yl)-1H-pyrrolo[2,3-b]pyridin-5-yl)cyclohexanamine] stands 40 nM; under `Cn1cc(-c2c[nH]c3ncc(C4CCCC4)cc23)cn1` [Compound I-11, 5-cyclopentyl-3-(1-methyl-1H-pyrazol-4-yl)-1H-pyrrolo[2,3-b]pyridine], 132 nM; under `CN1CCN(C2CC3C=C(c4cnc5[nH]cc(-c6cnn(C)c6)c5c4)CC(C3)C2)CC1` (stereo not drawn) [Compound I-149, trans-3-(1-methyl-1H-pyrazol-4-yl)-5-(7-(4-methylpiperazin-1-yl)bicyclo[3.3.1]non-2-en-3-yl)-1H-pyrrolo[2,3-b]pyridine], more than 500 nM.
As for “Mixture of 3-(1-methyl-1H-pyrazol-4-yl)-5-(5-methylcyclohex-1-enyl)-1H-pyrrolo[2,3-b]pyridine and 3-(1-methyl-1H-pyrazol-4-yl)-5-(3-methylcyclohex-1-enyl)-1H-pyrrolo[2,3-b]pyridine [Compound I-29]”, the half-maximal inhibitory concentration (IC50) came to 98 nM.
Under `CC1CCCC(c2cnc3[nH]cc(-c4cnn(C)c4)c3c2)C1` (mixture of isomers) [Compound I-32, 3-(1-methyl-1H-pyrazol-4-yl)-5-(3-methylcyclohexyl)-1H-pyrrolo[2,3-b]pyridine] stands 79 nM; under `COCCN(C)[C@H]1CC[C@@H](c2cnc3[nH]cc(-c4cnn(C)c4)c3c2)CC1` [Compound I-118, (1s,4s)-N-(2-methoxyethyl)-N-methyl-4-(3-(1-methyl-1H-pyrazol-4-yl)-1H-pyrrolo[2,3-b]pyridin-5-yl)cyclohexanamine], 257 nM.
Under `CCOCCN(CC)[C@H]1CC[C@H](c2cnc3[nH]cc(-c4cnn(C)c4)c3c2)CC1` [Compound I-107, (1r,4r)-N-(2-ethoxyethyl)-N-ethyl-4-(3-(1-methyl-1H-pyrazol-4-yl)-1H-pyrrolo[2,3-b]pyridin-5-yl)cyclohexanamine] stands 288 nM; under `Cn1cc(-c2c[nH]c3ncc(C4CCCCCC4)cc23)cn1` [Compound I-17, 5-cycloheptyl-3-(1-methyl-1H-pyrazol-4-yl)-1H-pyrrolo[2,3-b]pyridine], 162 nM.
Under `Cn1cc(-c2c[nH]c3ncc(C4=CCC(C)(C)C=C4)cc23)cn1` [Compound I-21, 5-(4,4-dimethylcyclohexa-1,5-dienyl)-3-(1-methyl-1H-pyrazol-4-yl)-1H-pyrrolo[2,3-b]pyridine] stands 49 nM.
For `Cn1cc(-c2c[nH]c3ncc([C@H]4CC[C@@H](N5CCCCC5)CC4)cc23)cn1` [Compound I-46, 3-(1-methyl-1H-pyrazol-4-yl)-5-((1s,4s)-4-(piperidin-1-yl)cyclohexyl)-1H-pyrrolo[2,3-b]pyridine], the IC50 turned out to be 151 nM.
Under `Cn1cc(-c2c[nH]c3ncc([C@H]4CC[C@@H](NC5CCOCC5)CC4)cc23)cn1` [Compound I-128, N-((1s,4s)-4-(3-(1-methyl-1H-pyrazol-4-yl)-1H-pyrrolo[2,3-b]pyridin-5-yl)cyclohexyl)tetrahydro-2H-pyran-4-amine] stands 794 nM.
For `Cn1cc(-c2c[nH]c3ncc(C4=CCCCC4)cc23)cn1` [Compound I-12, 5-cyclohexenyl-3-(1-methyl-1H-pyrazol-4-yl)-1H-pyrrolo[2,3-b]pyridine], the IC50 was found to be 110 nM.
Turning to `COC1=C(c2cnc3[nH]cc(-c4cnn(C)c4)c3c2)CCCC1` [Compound I-31, 5-(2-Methoxy-cyclohex-1-enyl)-3-(1-methyl-1H-pyrazol-4-yl)-1H-pyrrolo[2,3-b]pyridine], the IC50 was determined as 480 nM.
Under `Cn1cc(-c2c[nH]c3ncc([C@H]4CC[C@H](N5CC[C@@H](F)C5)CC4)cc23)cn1` [Compound I-54, 5-((1R,4r)-4-((R)-3-fluoropyrrolidin-1-yl)cyclohexyl)-3-(1-methyl-1H-pyrazol-4-yl)-1H-pyrrolo[2,3-b]pyridine] stands 174 nM; under `CN1CCN([C@H]2CC[C@H](c3cnc4[nH]cc(-c5cnn(C(F)(F)F)c5)c4c3)CC2)CC1` [Compound I-66, 5-((1r,4r)-4-(4-methylpiperazin-1-yl)cyclohexyl)-3-(1-(trifluoromethyl)-1H-pyrazol-4-yl)-1H-pyrrolo[2,3-b]pyridine], 219 nM.
As to `Cn1cc(-c2c[nH]c3ncc(C4CCC(F)(F)CC4)cc23)cn1` [Compound I-42, 5-(4,4-difluorocyclohexyl)-3-(1-methyl-1H-pyrazol-4-yl)-1H-pyrrolo[2,3-b]pyridine], the IC50 came to 138 nM.
Regarding `Cn1cc(-c2c[nH]c3ncc(C4=CCC(c5ccccc5)CC4)cc23)cn1` (stereo not drawn) [Compound I-27, 3-(1-methyl-1H-pyrazol-4-yl)-5-(4-phenylcyclohex-1-enyl)-1H-pyrrolo[2,3-b]pyridine], the IC50 is 155 nM.
`CCCN(CCO)[C@H]1CC[C@H](c2cnc3[nH]cc(-c4cnn(C)c4)c3c2)CC1` [Compound I-125, 2-(((1r,4r)-4-(3-(1-methyl-1H-pyrazol-4-yl)-1H-pyrrolo[2,3-b]pyridin-5-yl)cyclohexyl)(propyl)amino)ethanol]: the half-inhibitory concentration (IC50) came to 263 nM.
On to `Cn1cc(-c2c[nH]c3ncc(C4=CCC(C(C)(C)C)CC4)cc23)cn1` (stereo not drawn) [Compound I-2, 5-(4-tert-butylcyclohex-1-enyl)-3-(1-methyl-1H-pyrazol-4-yl)-1H-pyrrolo[2,3-b]pyridine], for which the IC50 turned out to be 199 nM.
The figure for `CCCN(CC)[C@H]1CC[C@@H](c2cnc3[nH]cc(-c4cnn(C)c4)c3c2)CC1` [Compound I-114, (1s,4s)-N-ethyl-4-(3-(1-methyl-1H-pyrazol-4-yl)-1H-pyrrolo[2,3-b]pyridin-5-yl)-N-propylcyclohexanamine] is 224 nM; for `CN1CCCN([C@H]2CC[C@@H](c3cnc4[nH]cc(-c5cnn(C)c5)c4c3)CC2)CC1` [Compound I-38, 5-((1s,4s)-4-(4-methyl-1,4-diazepan-1-yl)cyclohexyl)-3-(1-methyl-1H-pyrazol-4-yl)-1H-pyrrolo[2,3-b]pyridine] it is 98 nM.
The figure for `c1nn(CCN2CCOCC2)cc1-c1c[nH]c2ncc(C3CCCC3)cc12` [Compound I-64, 5-Cyclopentyl-3-[1-(2-morpholin-4-yl-ethyl)-1H-pyrazol-4-yl]-1H-pyrrolo[2,3-b]pyridine] is 158 nM; for `CCN(C)[C@H]1CC[C@H](c2cnc3[nH]cc(-c4cnn(C)c4)c3c2)CC1` [Compound I-109, (1r,4r)-N-ethyl-N-methyl-4-(3-(1-methyl-1H-pyrazol-4-yl)-1H-pyrrolo[2,3-b]pyridin-5-yl)cyclohexanamine] it is 302 nM.
